From US20200115412A1, “SEPARATION OF VANCOMYCIN AND ITS DEGRADATION PRODUCTS” (SAVARA INC., priority 2018, published 2020)
Counter-ions that a name gives are not always drawn. Like-named read-outs stand apart in the source and are kept apart here.

Assays:
[1] = Impurities in AeroVanc vancomycin powder stored for three months at 5° C. and 25° C., improved HPLC impurity method; format: physicochemical
Protocol: Calculate the concentration of each individual impurity in samples 1A, 2A and 3A, as follows:
Where: • I %i=Impurity concentration in sample 1A, 2A or 3A (as percentage) • 10=Dilution factor (50 mL/5.0 mL) • CV=Vancomycin concentration in sample solutions 1B, 2B or 3B (μg/mL) • Ci=Concentration of impurity in sample solution 1A, 2A or 3A (μg/mL) • Ci,total=Total concentration of impurities in sample solutions 1A, 2A or 3A
The method disclosed herein was also applied to the determination of degradation products of AeroVanc vancomycin powder stored for three months at 5° C. and 25° C.

[2] = Stated stability and handling properties; format: physicochemical; settings: reference standards handling
Excerpt: Vancomycin is a potent antibiotic reserved for serious drug-resistant bacterial infections including intravenous infusion for complicated infection (including MRSA) and oral administration for severe gastro-intestinal (GI) infections caused by Clostridium difficile. It was first isolated from soil bacterium (Amycolatopis orientalis) by Kornfeld in 1953, and first commercialized by Eli Lilly in 1954. Vancomycin, which is listed on the WHO's List of Essential Medicines, is a complex glycopeptide derived from N. orientalis with significant analytical challenges, including the presence of at least 12 identified impurities and a greater number of unknown impurities. […] Vancomycin has six ionizable groups and some of the impurities have seven. It is difficult to handle (high surface energy) and difficult to formulate. AeroVanc is a dry-powder inhalation product (DPI) under development for the treatment of methicillin resistant S. aureus (MRSA) infections in the lungs of cystic fibrosis patients. AeroVanc (vancomycin hydrochloride inhalation powder) contains the antibiotic and a single excipient, L-leucine. AeroVanc comprises a dry powder formulation which is delivered to the lungs by oral inhalation using a unit dose delivery device.

[3] = Impurity profiles of vancomycin degraded in solution and solid state (FIG. 22); format: physicochemical
Excerpt: The method disclosed herein was successfully applied to the determination of degradation products of vancomycin in the solution and solid states.

[4] = background statement; cited from earlier work
[5] = AeroVanc vancomycin powder stored three months at 5° C.
[6] = AeroVanc vancomycin powder stored three months at 25° C.

Compound | Impurity (%) [1, 5] [%] | Impurity (%) [1, 6] [%] | other results
CC(C)C[C@@H](N)C(=O)N[C@H]1C(=O)N[C@@H](CC(N)=O)C(=O)N[C@H]2C(=O)N[C@H]3C(=O)N[C@H](C(=O)N[C@H](C(=O)O)c4cc(O)cc(O)c4-c4cc3ccc4O)[C@H](O)c3ccc(c(Cl)c3)Oc3cc2cc(c3O[C@@H]2O[C@H](CO)[C@@H](O)[C@H](O)[C@H]2O[C@H]2C[C@](C)(N)[C@H](O)[C@H](C)O2)Oc2ccc(cc2Cl)[C@H]1O [N-demethyl, N-demethyl-vancomycin (EP Impurity A)] | 1.757 | 1.722 | 
CC(C)C[C@H](C(=O)N[C@H]1C(=O)N[C@@H](CC(N)=O)C(=O)N[C@H]2C(=O)NC3C(=O)N[C@H](C(=O)N[C@H](C(=O)O)c4cc(O)cc(O)c4-c4cc3ccc4O)[C@H](O)c3ccc(c(Cl)c3)Oc3cc2cc(c3O[C@@H]2OC(CO)C(O)C(O)[C@H]2O[C@H]2C[C@](C)(N)[C@H](O)[C@H](C)O2)Oc2ccc(cc2Cl)[C@H]1O)N(C)C (some centres unmarked) [N-methyl, N-methyl-vancomycin] | 0.019 | 0.027 | 
CN[C@H](CC(C)C)C(=O)N[C@H]1C(=O)N[C@@H](CC(N)=O)C(=O)N[C@H]2C(=O)N[C@H]3C(=O)N[C@H](C(=O)N[C@H](C(=O)O)c4cc(O)cc(O)c4-c4cc3ccc4O)[C@H](O)c3ccc(c(Cl)c3)Oc3cc2cc(c3O[C@@H]2O[C@H](CO)[C@@H](O)[C@H](O)[C@H]2O[C@H]2C[C@](C)(N)[C@H](O)[C@H](C)O2)Oc2ccc(cc2Cl)[C@H]1O [Vancomycin HCl, vancomycin hydrochloride] |  |  | light sensitivity and hygroscopicity [2]: light sensitive and hygroscopic
CN[C@H](CC(C)C)C(=O)N[C@H]1C(=O)N[C@@H](CC(N)=O)C(=O)N[C@H]2C(=O)N[C@H]3C(=O)N[C@H](C(=O)N[C@H](C(=O)O)c4cc(O)cc(O)c4-c4cc3ccc4O)[C@H](O)c3ccc(c(Cl)c3)Oc3cc2cc(c3O[C@@H]2O[C@H](CO)[C@@H](O)[C@H](O)[C@H]2O[C@H]2C[C@](C)(N)[C@H](O)[C@H](C)O2)Oc2ccc(cc2Cl)[C@H]1O [Vancomycin] |  |  | impurity profile of degraded vancomycin ([3]; degraded in aqueous solution, compared to the degraded solid): larger amounts of CDP-1 Minor, CPD-1 Major and additional unknowns; impurity profile of degraded vancomycin ([3]; degraded solid, compared to the degraded aqueous solution): increased desamido-succinimide vancomycin and agluco vancomycin; stability at room temperature [4]: unstable at room temperature; net charge (at high pH): −4; net charge (at low pH): +2; net charge (plateau region between pH 3.5 and 5.5): +1
Agluco-vancomycin (EP Impurity C) | 0.139 | 0.163 | 
Cis-chloro-(2)-vancomycin | 0.194 | 0.200 | 
De-((L-asn)-L-gln-vancomycin (EP Impurity B) [De-(L-Asn)-L-Gln] | 0.152 | 0.151 | 
Des-(amido)-aspartyl-vancomycin (CDP-1 minor) [CDP-1minor] | 0.017 | 0.026 | 
Des-(amido)-succinimido- vancomycin [Des-amido-succinimido] | 0.577 | 0.759 | 
Desvancosamino-vancomycin (EP Impurity D) [Des-vancosamino] | 0.343 | 0.398 | 
Epi-(26R)-vancomycin [Epi-26(R)] | 0.610 | 0.628 | 
Monodechloro-(2)-vancomycin | 0.069 | 0.072 | 
Monodechloro-(6)-vancomycin [Mono-dechloro-(6)] | 0.679 | 0.671 | 
